Assay results from patent US20120238553A1 (priority 2009, published 2012).
Structures can show the parent of a compound that is named as a salt.

Biological target: α7-subtype of nicotinic receptors (Rattus norvegicus, UniProt Q05941)
Assay: biochemical
Assay type: binding

Sequence of α7-subtype of nicotinic receptors (Q05941 23-502): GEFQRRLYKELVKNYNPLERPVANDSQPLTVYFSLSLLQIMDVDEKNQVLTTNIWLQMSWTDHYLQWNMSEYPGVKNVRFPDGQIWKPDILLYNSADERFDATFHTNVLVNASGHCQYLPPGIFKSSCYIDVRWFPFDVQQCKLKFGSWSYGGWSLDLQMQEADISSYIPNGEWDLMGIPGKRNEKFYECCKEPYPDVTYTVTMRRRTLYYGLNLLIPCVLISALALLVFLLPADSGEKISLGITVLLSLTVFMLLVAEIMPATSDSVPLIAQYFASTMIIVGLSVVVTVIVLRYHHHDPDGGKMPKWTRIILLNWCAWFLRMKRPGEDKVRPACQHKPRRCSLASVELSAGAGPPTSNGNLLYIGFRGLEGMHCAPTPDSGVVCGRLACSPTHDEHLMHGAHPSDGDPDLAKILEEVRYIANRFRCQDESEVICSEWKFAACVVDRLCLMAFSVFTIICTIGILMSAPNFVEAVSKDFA

With `c1cc2c(c(-c3nnc(N4CCN5CCC4CC5)o3)c1)OCO2` [Compound 1, 4-(5-Benzo[1,3]dioxol-4-yl-[1,3,4]oxadiazol-2-yl)-1,4-diaza-bicyclo[3.2.2]nonane fumaric acid salt] the IC50 was 22 nM.
